Data published in US20250051355A1, “COMPOUNDS, COMPOSITIONS, AND METHODS” (ACONCAGUA BIO, INC., priority 2023, published 2025).

Key:
[1] = target: T1, human calcitonin receptor (CTR) (Homo sapiens, UniProt P30988); assay: Calcitonin receptor (CTR) cAMP Assay; format: cell-based; conditions: COS7-human CTR Clone #2 cells, cAMP dynamic 2 kit; read-out: Calcitonin Receptor cAMP Stimulation Activity: EC50
T1 construct: expressed in transfected cells; host or cells: COS-7 (COS7-human CTR Clone #2)
T1 sequence (P30988 25-474): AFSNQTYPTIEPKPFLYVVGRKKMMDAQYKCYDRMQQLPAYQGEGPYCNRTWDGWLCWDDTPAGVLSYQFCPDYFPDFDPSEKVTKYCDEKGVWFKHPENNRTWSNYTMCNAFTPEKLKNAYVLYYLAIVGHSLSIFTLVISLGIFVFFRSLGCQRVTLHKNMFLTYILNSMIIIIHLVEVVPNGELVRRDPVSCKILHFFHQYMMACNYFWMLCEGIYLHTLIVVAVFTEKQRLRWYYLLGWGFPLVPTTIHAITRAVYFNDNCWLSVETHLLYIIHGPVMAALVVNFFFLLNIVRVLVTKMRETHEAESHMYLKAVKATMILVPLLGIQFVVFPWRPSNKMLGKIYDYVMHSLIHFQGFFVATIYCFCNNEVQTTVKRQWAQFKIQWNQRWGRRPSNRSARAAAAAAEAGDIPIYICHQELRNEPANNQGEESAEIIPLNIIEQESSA
Outline: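 COS-7 cells stably expressing human CTR (2000 cells/well) treated with 4-fold serially diluted compounds in HBSS/20 mM HEPES/0.5 mM IBMX/0.1% casein, 30 min at 37° C. cAMP quantified by HTRF (cAMP-d2 plus anti-cAMP cryptate, 1 h RT), fluorescence read at 665 and 615 nm.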

[2] = target: human calcitonin receptor (CTR) and RAMP3 (AMY3) (Homo sapiens, UniProt O60896+P30988); assay: Amylin Receptor cAMP Assay I; format: cell-based; conditions: COS-7/AMY3 cells, cAMP Hi-range Kit, read-out: Amylin Receptor cAMP Stimulation Activity: EC50
Excerpt: Amylin Receptor cAMP Assay I
AMYRs are heterodimers of the class B calcitonin (CT) G-protein-coupled receptor (CTR) and receptor activity-modifying proteins (RAMPs). All three RAMPs can interact with the CTR and form AMY1, AMY2, AMY3 with RAMP1, RAMP2 and RAMP3, respectively. Like other class B1 GPCRs, the CT receptor family is canonically coupled to Gs-mediated cAMP production, and measurement of cAMP accumulation has been the primary assay used to determine peptide selectivity and potency.
To optimize functional activity directed toward Gas coupling, COS-7 cells were stably transfected with human calcitonin receptor (CTR) and RAMP3, simultaneously. 100×concentration of compound working solutions were prepared (Agilent Technologies Bravo) with 4-fold serial dilution in 384-well Echo LDV plate (Labcyte, Cat #LP-0200). 100 nL/well 100× concentration of compound working solutions were moved to 384-well white low volume plate (Greiner, Cat #784075) using Labcyte ECHO550. 1×10^5 cells/mL COS-7/CTR or COS-7/AMY3 (HD Biosciences) cell suspensions prepared with assay buffer [DPBS containing 0.5 mM IBMX (Sigma, Cat #15879) and 0.1% BSA (GENVIEW, Cat #FAO16-100 g)], 10 μL cell suspensions were added to each well of previous generated assay plate which already contains 100 nL compound at 100× concentration using ThermoFisher Multidrop Combi (1000 cells/well). Seal the plate and incubate at 37° C. with 5% CO2 for 30 min.
After incubation, the cAMP assay signal was generated using cAMP Hi-range Kit (Cisbio). 5 μL cAMP-d2 working solution was added to each well, followed by 5 μL Anti-cAMP antibody-cryptate working solution which was added to each well using ThermoFisher Multidrop Combi. The samples were then incubated at room temperature for 1 hour protected from light. the fluorescence was read at 665 and 615 nm with Reader PerkinElmer EnVision.

Sequence of human calcitonin receptor (CTR) and RAMP3 (AMY3) (O60896 24-148, one chain of several): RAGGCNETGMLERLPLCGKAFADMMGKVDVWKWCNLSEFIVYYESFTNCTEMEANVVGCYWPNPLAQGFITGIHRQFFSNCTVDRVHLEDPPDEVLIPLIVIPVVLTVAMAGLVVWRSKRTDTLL

| Structure (SMILES) | EC50 [1] | EC50 [2] |
| --- | --- | --- |
| Cc1nnc(-c2c(CCc3ccc(F)cc3)nc3c(c2-c2ccc(C(=O)NCc4ccc(F)c(F)c4)s2)C(=O)N[C@@H]3C(C)C)o1 [Compound 2, N-(3,4-difluorophenyl)methyl-5-((R)-5-[2-(p-fluorophenyl)ethyl]-3-isopropyl-6-(5-methyl-1,3,4-oxadiazol-2-yl)-1-oxo-2,4-diaza-7-indanyl}-2-thenamide] | 7 nM | 33.3 nM |
| Cc1nnc(-c2c(CCc3ccc(F)cc3)nc3c(c2-c2ccc(C(=O)NCc4ccc(F)c(F)c4)s2)C(=O)N2CCC[C@@H]32)o1 [Compound 4, (S)—N-(3,4-difluorobenzyl)-5-(2-(4-fluorophenethyl)-3-(5-methyl-1,3,4-oxadiazol-2-yl)-5-oxo-7,8,9,9a-tetrahydro-5H-pyrido[2,3-a]pyrrolizin-4-yl)thiophene-2-carboxamide] | 4.5 nM | 47.5 nM |
| Cc1nnc(-c2c(COc3ccc(F)cc3)nc3c(c2-c2ccc(C(=O)NCc4ccc(F)c(F)c4)s2)C(=O)N2CCC[C@@H]32)o1 [Compound 7, (S)—N-(3,4-difluorobenzyl)-5-(2-((4-fluorophenoxy)methyl)-3-(5-methyl-1,3,4-oxadiazol-2-yl)-5-oxo-7,8,9,9a-tetrahydro-5H-pyrido[2,3-a]pyrrolizin-4-yl)thiophene-2-carboxamide] | 76 nM | 128 nM |
| Cc1nnc(-c2c(CC(C)c3ccc(F)cc3)nc3c(c2-c2ccc(C(=O)NCc4ccc(F)c(F)c4)s2)C(=O)N2CCC[C@@H]32)o1 (stereo partly drawn) [Compound 9, N-(3,4-difluorobenzyl)-5-((9aS)-2-(2-(4-fluorophenyl)propyl)-3-(5-methyl-1,3,4-oxadiazol-2-yl)-5-oxo-7,8,9,9a-tetrahydro-5H-pyrido[2,3-a]pyrrolizin-4-yl)thiophene-2-carboxamide] | 15 nM | 53.3 nM |
| Cc1nnc(-c2c(CCc3ccc(F)cc3)nc3c(c2-c2ccc(C(=O)NCc4ccc(F)c(F)c4)s2)c(=O)n2n3CCC2)o1 [Compound 15, N-(3,4-difluorophenyl)methyl-5-(11-[2-(p-fluorophenyl)ethyl]-10-(5-methyl-1,3,4-oxadiazol-2-yl)-7-oxo-2,6,12-triazatricyclo[6.4.0.0^2,6]dodeca-1(12),8,10-trien-9-yl}-2-thenamide] | 17 nM | 88.4 nM |
| Cc1nnc(-c2c(CCc3ccc(F)cc3)nc3c(c2-c2ccc(C(=O)NCc4ccc(F)c(F)c4)s2)S(=O)(=O)N2CCC[C@@H]32)o1 [Compound 17, (S)—N-(3,4-difluorobenzyl)-5-(2-(4-fluorophenethyl)-3-(5-methyl-1,3,4-oxadiazol-2-yl)-5,5-dioxido-7,8,9,9a-tetrahydropyrrolo[1′,2′:2,3]isothiazolo[4,5-b]pyridin-4-yl)thiophene-2-carboxamide] | 5.5 nM | 65.8 nM |
| Cc1nnc(-c2c(CCc3ccc(F)cc3F)nc3c(c2-c2ccc(C(=O)NCc4ccc(F)c(F)c4)s2)C(=O)N2CCC[C@@H]32)o1 [Compound 42, 5-[(9aS)-2-[2-(2,4-difluorophenyl)ethyl]-3-(5-methyl-1,3,4-oxadiazol-2-yl)-5-oxo-7,8,9,9a-tetrahydropyrido[2,3-a]pyrrolizin-4-yl]-N-[(3,4-difluorophenyl)methyl]thiophene-2-carboxamide] | 14 nM | 114 nM |
| Cc1nnc(-c2c(CCC3CCCOC3)nc3c(c2-c2ccc(C(=O)NCc4ccc(F)c(F)c4)s2)C(=O)N2CCC[C@@H]32)o1 (stereo partly drawn) [Compound 61, N-(3,4-difluorobenzyl)-5-((9aS)-3-(5-methyl-1,3,4-oxadiazol-2-yl)-5-oxo-2-(2-(tetrahydro-2H-pyran-3-yl)ethyl)-7,8,9,9a-tetrahydro-5H-pyrido[2,3-a]pyrrolizin-4-yl)thiophene-2-carboxamide] | 39 nM | 178 nM |

The remaining lines, values ahead:

| EC50 [1] | EC50 [2] | Structure (SMILES) |
| --- | --- | --- |
| 3.7 nM | 43.9 nM | Cc1nnc(-c2c(CCc3ccc(F)cc3)nc3c(c2-c2ccc(C(=O)NCc4ccc(F)c(F)c4)s2)C(=O)N[C@H]3C(C)C)o1 [Compound 1, N-(3,4-difluorophenyl)methyl-5-{(S)-5-[2-(p-fluorophenyl)ethyl]-3-isopropyl-6-(5-methyl-1,3,4-oxadiazol-2-yl)-1-oxo-2,4-diaza-7-indanyl)-2-thenamide] |
| 2 nM | 31.1 nM | Cc1nnc(-c2c(CCc3ccc(F)cc3)nc3c(c2-c2ccc(C(=O)NCc4ccc(F)c(F)c4)s2)S(=O)(=O)N[C@H]3C(C)C)o1 [Compound 18, (S)—N-(3,4-difluorobenzyl)-5-(5-(4-fluorophenethyl)-3-isopropyl-6-(5-methyl-1,3,4-oxadiazol-2-yl)-1,1-dioxido-2,3-dihydroisothiazolo[4,5-b]pyridin-7-yl)thiophene-2-carboxamide] |
| 5.3 nM | 25.3 nM | Cc1nnc(-c2c(CCc3ccc(F)cc3)nc3c(c2-c2ccc(C(=O)NCc4ccc(F)c(F)c4)s2)S(=O)(=O)CC3C(C)C)o1 (stereo not shown) [Compound 19, N-(3,4-difluorobenzyl)-5-(5-(4-fluorophenethyl)-3-isopropyl-6-(5-methyl-1,3,4-oxadiazol-2-yl)-1,1-dioxido-2,3-dihydrothieno[3,2-b]pyridin-7-yl)thiophene-2-carboxamide] |
| 31 nM | 128 nM | Cc1nnc(-c2c(CCC3CCOCC3)nc3c(c2-c2ccc(C(=O)NCc4ccc(F)c(F)c4)s2)C(=O)N2CCC[C@@H]32)o1 [Compound 29] |
| 2.8 nM | 78.5 nM | Cc1nnc(-c2c(CCC3CCOCC3)nc3c(c2-c2cc4ccnc(NCc5ccc(F)c(F)c5)c4s2)C(=O)N2CCC[C@@H]32)o1 [Compound 63] |
| 45 nM | 811 nM | Cc1nnc(-c2c(CCC3CCOCC3)nc3c(c2-c2cc4ccnc(NCc5cccc(F)c5)c4s2)C(=O)N2CCC[C@@H]32)o1 [Compound 70] |
